According to publication PMC6650409, “Modeling the binding of diverse ligands within the Ah receptor ligand binding domain” (Scientific Reports, 2019):
Changes are numbered by the printed parent chain. Like-named read-outs stand apart in the source and are kept apart here.

Columns and labels:
S359A mutant AhR = target: T1, S359A mutant AhR (Mus musculus, UniProt P30561, S359A); assay: [3H]TCDD competitive ligand binding, S359A mutant AhR; settings: for IC50: Table S6, AhR mutant S359A
T1 construct: made in house; host or cells: in vitro, Promega TNT Quick rabbit reticulocyte lysate
T1 sequence (P30561 10-848 S359A): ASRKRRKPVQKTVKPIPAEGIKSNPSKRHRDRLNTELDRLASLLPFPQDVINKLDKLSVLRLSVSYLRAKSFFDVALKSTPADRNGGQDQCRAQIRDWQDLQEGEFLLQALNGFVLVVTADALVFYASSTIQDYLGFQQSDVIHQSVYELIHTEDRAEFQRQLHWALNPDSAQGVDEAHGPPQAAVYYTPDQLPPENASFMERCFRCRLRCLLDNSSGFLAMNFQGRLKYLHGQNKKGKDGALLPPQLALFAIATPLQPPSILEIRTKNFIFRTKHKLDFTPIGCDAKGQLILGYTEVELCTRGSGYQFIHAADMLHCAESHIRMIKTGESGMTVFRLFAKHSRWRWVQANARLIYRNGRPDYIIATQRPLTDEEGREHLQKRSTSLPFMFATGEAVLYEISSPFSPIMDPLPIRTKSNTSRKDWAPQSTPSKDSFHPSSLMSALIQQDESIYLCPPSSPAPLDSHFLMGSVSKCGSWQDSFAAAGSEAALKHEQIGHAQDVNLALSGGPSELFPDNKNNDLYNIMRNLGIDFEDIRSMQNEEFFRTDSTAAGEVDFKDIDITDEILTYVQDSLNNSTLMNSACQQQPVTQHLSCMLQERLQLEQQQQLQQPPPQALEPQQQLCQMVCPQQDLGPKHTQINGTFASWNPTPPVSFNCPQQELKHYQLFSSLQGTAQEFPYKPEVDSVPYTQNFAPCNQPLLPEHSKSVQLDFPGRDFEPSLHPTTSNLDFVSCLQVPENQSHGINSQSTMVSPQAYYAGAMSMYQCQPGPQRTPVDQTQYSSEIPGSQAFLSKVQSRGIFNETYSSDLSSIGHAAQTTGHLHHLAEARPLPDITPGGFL
Protocol: (§1) The mouse AhR (mAhR) and ARNT (mARNT) expression plasmids, mβAhR/pcDNA3 and mβArnt/pcDNA3, have been previously described. Point mutations of mβAhR/pcDNA3 were carried out using the QuikChange Lightning Mutagenesis Kit (Agilent Technologies) and all constructs were verified by sequencing.
(§2) [^3H]TCDD specific binding to wild-type or mutant mAhRs synthesized in vitro using the Promega TNT Quick coupled transcription/translation rabbit reticulocyte lysate kit (Madison, WI) was carried out as previously described. [^3H]TCDD specific binding was determined by subtracting the amount of [^3H]TCDD bound to unprogrammed lysate (nonspecific binding) from the total amount of [^3H]TCDD binding to lysate containing in vitro expressed AhR. The amount of [^3H]TCDD specific binding remaining in the presence of the indicated competitor chemical was expressed as a percent of the total [^3H]TCDD specific binding. The relative binding affinity (IC50) of each chemical was determined from concentration-dependent competitive inhibition curves obtained using [^3H]TCDD and increasing concentrations of each test chemical and the mean IC50 value was determined using three-parameter non-linear regression.

C327A mutant AhR = target: T2, C327A mutant AhR (Mus musculus, UniProt P30561, C327A); assay: [3H]TCDD competitive ligand binding, C327A mutant AhR; settings: for change of relative binding affinity versus wild-type AhR: C327A mutation, in words; for IC50: Table S6, AhR mutant C327A
T2 construct: made in house; host or cells: in vitro, Promega TNT Quick rabbit reticulocyte lysate
T2 sequence (P30561 10-848 C327A): T1 sequence (P30561 10-848 S359A) with C318A, A350S
Protocol: as §1, §2

L309A mutant AhR = target: T3, L309A mutant AhR (Mus musculus, UniProt P30561, L309A); assay: AhR DNA binding (gel retardation) assay, L309A mutant AhR; format: biochemical; settings: L309A substitution; relative to wt mAhR activated by TCDD; single maximal ligand concentration
T3 construct: made in house; host or cells: in vitro transcription/translation (rabbit reticulocyte lysate)
Protocol: Wild-type and mutant mAhRs and mARNT were synthesized in vitro in the presence of unlabeled L-methionine, the resulting mAhRs and mARNT translation mixtures and MEDGK (25 mM MOPS (3-(N-morpholino)propanesulfonic acid; pH 7.5), 1 mM EDTA, 1 mM dithiothreitol, 10% (v/v) glycerol, 150 mM KCl) were mixed in a 1:1:8 (v/v/v) ratio and incubated with DMSO (1% final concentration) or the indicated concentration of TCDD or test chemical for 2 hours at room temperature. An aliquot of each incubation was mixed with [^32P]-labeled double-stranded oligonucleotide containing the mouse AhR DNA binding site DRE3 (a dioxin responsive element from the upstream region of the murine Cyp1a1 gene[71]) and protein-DNA complexes resolved by gel retardation analysis as previously described in detail. Gels were visualized using a FLA9000 Fujifilm Imager and protein-DNA complexes quantitated with Fujifilm MultiGauge software. For potency measurements, reactions were incubated with increasing concentrations of the test chemical and the chemical concentration producing half maximal AhR:ARNT:DRE complex formation (EC50) determined.

T3 sequence (P30561 10-848 L309A): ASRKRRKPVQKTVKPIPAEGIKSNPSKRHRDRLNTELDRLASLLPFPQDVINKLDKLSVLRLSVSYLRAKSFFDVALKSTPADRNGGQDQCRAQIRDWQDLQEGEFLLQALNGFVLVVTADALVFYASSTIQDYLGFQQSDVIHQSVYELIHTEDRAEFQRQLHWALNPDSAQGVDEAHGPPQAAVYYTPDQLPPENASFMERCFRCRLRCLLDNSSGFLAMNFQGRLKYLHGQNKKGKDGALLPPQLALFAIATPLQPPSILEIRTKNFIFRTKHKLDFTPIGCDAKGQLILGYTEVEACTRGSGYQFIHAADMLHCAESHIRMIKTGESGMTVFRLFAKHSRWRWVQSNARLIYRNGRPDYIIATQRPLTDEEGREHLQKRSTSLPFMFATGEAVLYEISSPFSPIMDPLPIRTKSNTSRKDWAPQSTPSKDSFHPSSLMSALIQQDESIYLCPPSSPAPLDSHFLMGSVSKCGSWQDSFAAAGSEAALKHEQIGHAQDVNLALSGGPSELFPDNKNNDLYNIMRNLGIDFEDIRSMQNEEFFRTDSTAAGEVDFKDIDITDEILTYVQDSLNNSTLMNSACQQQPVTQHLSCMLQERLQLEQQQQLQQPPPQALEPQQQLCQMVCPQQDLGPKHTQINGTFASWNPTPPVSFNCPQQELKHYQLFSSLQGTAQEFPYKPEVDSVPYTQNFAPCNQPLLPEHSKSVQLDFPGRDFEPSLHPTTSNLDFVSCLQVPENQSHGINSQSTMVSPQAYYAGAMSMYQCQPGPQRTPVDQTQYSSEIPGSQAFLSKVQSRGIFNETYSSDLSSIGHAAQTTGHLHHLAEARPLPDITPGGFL
T3 sequence (P53762 whole entry partner): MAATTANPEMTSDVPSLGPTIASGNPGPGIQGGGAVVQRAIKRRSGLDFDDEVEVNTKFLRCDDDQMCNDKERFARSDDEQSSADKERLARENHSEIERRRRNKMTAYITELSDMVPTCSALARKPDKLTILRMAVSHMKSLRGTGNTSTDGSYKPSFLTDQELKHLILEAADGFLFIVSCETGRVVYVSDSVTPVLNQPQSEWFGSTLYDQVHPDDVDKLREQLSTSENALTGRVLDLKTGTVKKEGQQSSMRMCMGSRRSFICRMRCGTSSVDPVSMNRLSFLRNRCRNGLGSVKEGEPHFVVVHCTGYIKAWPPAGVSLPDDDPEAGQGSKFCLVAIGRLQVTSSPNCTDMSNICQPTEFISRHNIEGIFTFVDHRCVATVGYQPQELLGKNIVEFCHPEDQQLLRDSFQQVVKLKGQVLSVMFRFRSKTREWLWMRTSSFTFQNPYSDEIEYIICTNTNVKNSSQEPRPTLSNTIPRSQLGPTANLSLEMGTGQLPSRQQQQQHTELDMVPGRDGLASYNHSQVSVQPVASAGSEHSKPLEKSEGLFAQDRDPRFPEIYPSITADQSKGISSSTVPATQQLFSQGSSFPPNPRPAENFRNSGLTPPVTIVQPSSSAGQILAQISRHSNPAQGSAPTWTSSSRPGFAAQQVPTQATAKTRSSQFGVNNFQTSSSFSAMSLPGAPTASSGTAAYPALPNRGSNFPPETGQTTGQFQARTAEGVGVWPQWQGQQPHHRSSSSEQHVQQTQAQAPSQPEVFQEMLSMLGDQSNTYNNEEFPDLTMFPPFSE

Compound	IC50 (S359A mutant AhR) [µM]	change of relative binding affinity versus wild-type AhR (C327A mutant AhR)	IC50 (C327A mutant AhR; read-out: IC50) [µM]	ligand-induced AhR DNA binding (L309A mutant AhR)	IC50 (C327A mutant AhR; read-out: -LogIC50 (converted)) [µM]	change of relative binding affinity versus wild-type AhR (S359A mutant AhR; S359A substitution, in words)
O=c1cc(-c2ccccc2)oc2ccc3ccccc3c12 [BNF]	0.0471	significantly decreased	0.0405			
c1ccc2c(c1)cc1ccc3cccc4ccc2c1c34 [BaP, Benzo(a)pyrene]				little to no		
c1ccc2c(c1)ccc1cc3c(ccc4ccccc43)cc12 [DBA, dibenz(a,h)anthracene]		no significant effect	0.0146		0.0148	
O=Cc1c2[nH]c3ccccc3c2cc2[nH]c3ccccc3c12 [FICZ, 6-formylindolo[3,2-b]carbazole]	0.0041	no significant effect	0.00432			decreased binding
Clc1cc2c(cc1Cl)Oc1cc(Cl)c(Cl)cc1O2 [TCDD, 2,3,7,8-tetrachlorodibenzo-p-dioxin]				less than 25%		
Clc1cc2oc3cc(Cl)c(Cl)cc3c2cc1Cl [TCDF, 2,3,7,8-tetrachlorodibenzofuran]				little to no		
